{"source": "patent EP2399598B1", "about": "“Blockade of CCL18 signaling via CCR6 as a therapeutic option in fibrotic diseases and cancer” (Universitätsklinikum Freiburg, priority 2010, dated 2014)", "system": "CCR6", "assay": "Inhibition of CCL18-induced CCR6 down-regulation on mononuclear cells (flow cytometry)", "assay_type": "cell-based", "settings": "freshly isolated human lymphocytes/PBMNC, 20 minutes, FACS; for CCL18 induced down-regulation of CCR6 expression: CCL18 10 ng/ml plus inhibitor 100 ng/ml", "protocol": "Freshly isolated mononuclear cells were incubated for 20 minutes with 10 ng/ml of CCL18, 100ng/ml of the inhibitor peptide PS-AU-105 (polypeptide according to SEQ ID NO.:1), a combination of both or were left untreated. The incubation was performed in RPMI1640 with 10% fetal calf serum and 100 U/ml Streptomycin/Penicillin at 37°C. After the incubation, the cells were centrifugated and the supernatant was discarded. The cells were fixed with 4% paraformaldehyde for 5 minutes on ice and washed twice in PBS containing 1% FCS. After fixation the cells were stained using a fluorescein-conjugated antibody against CCR6 (R&D systems, Wiesbaden, FRG) and analyzed by flow cytometry (FACScalibur and Quantiquest; both Beckon Dickinson, Franklin Lakes, USA).\nThis CCL18 induced redaction of CCR6 expression is diminished in the presence of the inhibitor peptide PS-AU-105 (polypeptide according to SEQ ID No.: 1).", "note": "Entries after “also recorded” stand apart in the source; their conditions may differ."}
{"substance": "PS-AU-105: inhibitor peptide, polypeptide according to SEQ ID NO.:1; 29 amino acids, artificial, peptide inhibitor of CCR6 (EDCCLVYTSWQIHPKFIVDYSETSPQCPK)", "values": [{"measurement": "CCL18 induced down-regulation of CCR6 expression", "value": "diminished; also recorded: fails to down-regulate the CCR6^+ sub-population"}, {"measurement": "CCL18 induced down-regulation of CCR6 expression", "setting": "listed as PS-AU-1015", "value": "this down-regulation docs not occur"}, {"measurement": "CCR6 expression, inhibitor only", "setting": "inhibitor 100 ng/ml alone", "value": "no effect"}]}
